According to patent US5601801A, “Radiolabelled angiotensin converting enzyme inhibitors” (Merck Frosst Canada, Inc., priority 1994, dated 1997):
Like-named read-outs stand apart in the source and are kept apart here.

Columns and labels:
[1] = Biodistribution of ^131 I-3 in CD-1 Mice, normal and blocked with lisinopril; format: in vivo; conditions: for tissue uptake at 0.5 h / tissue uptake at 1.5 h / tissue uptake at 3 h / tissue uptake at 6 h: iv, 1 uCi
Description: It is well known that there are high ACE concentrations in the lungs, kidneys, pre-optic region of the brain and the blood.^4 Localization of the radioactivity in these organs was expected. […] A blocking study was undertaken to differentiate between specific and non-specific binding.
^131 I-3 was prepared as described above and used in this experiment. The experiment was carried out using male CD-1 mice. The mice were fasted 15 hours prior to injection with 1 μCi of ^131 I-3 by bolus injection into the lateral tail vein. At various times following the dosing, selected mice were sacrificed, exsanguinated and dissected. The desired organs were rinsed, blotted, weighed and counted. For the blocking experiment, mice were treated with 10 μg of lisinopril (by bolus injection into the lateral tail vein) 5 minutes before injection of ^131 I-3.
This blocking experiment was an attempt to differentiate between specific and non-specific binding. […] This is illustrated by the dramatic decrease in radioactivity present in these organs in the blocked biodistribution as compared to the normal biodistribution. […] The anomaly of the first time point has yet to be explained.

[2] = Imaging of a New Zealand White Rabbit with ^131 I-3; format: in vivo; conditions: intravenous ear injection
Text: It was thought that this small intestine uptake could be due to a difference in mouse ACE or in its distribution as compared to human ACE. It was decided to carry out this imaging experiment in a rabbit since rabbit ACE is believed to be similar to human ACE. It should be noted that it was rabbit ACE which was used in the IC50 assay.
^131 I-3 prepared as described above was taken up in phosphate buffered saline, the solution was filtered through a 0.2μ Millipore filter, and was introduced into the rabbit by intravenous ear injection followed by imaging of the rabbit.

[3] = mouse, blood, blocked (lisinopril), read-out: Biodistribution, Blood
[4] = mouse, blood, normal (not blocked), read-out: Biodistribution, Blood
[5] = mouse, contents, blocked (lisinopril), read-out: Biodistribution, Contents
[6] = mouse, contents, normal (not blocked), read-out: Biodistribution, Contents
[7] = mouse, fat, blocked (lisinopril), read-out: Biodistribution, Fat
[8] = mouse, fat, normal (not blocked), read-out: Biodistribution, Fat
[9] = mouse, kidney, blocked (lisinopril), read-out: Biodistribution, Kidney
[10] = mouse, kidney, normal (not blocked), read-out: Biodistribution, Kidney
[11] = mouse, large intestine, blocked (lisinopril), read-out: Biodistribution, lg. Intest.
[12] = mouse, large intestine, normal (not blocked), read-out: Biodistribution, lg. Intest.
[13] = mouse, liver, blocked (lisinopril), read-out: Biodistribution, Liver
[14] = mouse, liver, normal (not blocked), read-out: Biodistribution, Liver
[15] = mouse, lung, blocked (lisinopril), read-out: Biodistribution, Lung
[16] = mouse, lung, normal (not blocked), read-out: Biodistribution, Lung
[17] = mouse, muscle, blocked (lisinopril), read-out: Biodistribution, Muscle
[18] = mouse, muscle, normal (not blocked), read-out: Biodistribution, Muscle
[19] = mouse, small intestine, blocked (lisinopril), read-out: Biodistribution, Sm. Intest.
[20] = mouse, small intestine, normal (not blocked), read-out: Biodistribution, Sm. Intest.
[21] = mouse, stomach, blocked (lisinopril), read-out: Biodistribution, Stomach
[22] = mouse, stomach, normal (not blocked), read-out: Biodistribution, Stomach

kidney uptake, blocked vs normal ([1]; 0.5 hours, pre-injection with lisinopril): slight increase (or no change)
nature of uptake in kidney, lung and small intestine ([1]; blocking experiment): due to specific binding
tissue uptake at 0.5 h ([1]; mouse, blood, 0.5 hours, blocked (lisinopril), read-out: Biodistribution, Blood): 6 %ID/g
tissue uptake at 0.5 h ([1]; mouse, blood, 0.5 hours, normal (not blocked), read-out: Biodistribution, Blood): 5.9 %ID/g
tissue uptake at 1.5 h [1, 3]: 3.2 %ID/g
tissue uptake at 1.5 h [1, 4]: 3.2 %ID/g
tissue uptake at 3 h [1, 3]: 1.3 %ID/g
tissue uptake at 3 h [1, 4]: 3.1 %ID/g
tissue uptake at 6 h [1, 3]: 0.9 %ID/g
tissue uptake at 6 h [1, 4]: 1 %ID/g
tissue uptake at 0.5 h ([1]; mouse, contents, 0.5 hours, blocked (lisinopril), read-out: Biodistribution, Contents): 17.9 %ID/g
tissue uptake at 0.5 h ([1]; mouse, contents, 0.5 hours, normal (not blocked), read-out: Biodistribution, Contents): 21.4 %ID/g
tissue uptake at 1.5 h [1, 5]: 28.5 %ID/g
tissue uptake at 1.5 h [1, 6]: 22.1 %ID/g
tissue uptake at 3 h [1, 5]: 15 %ID/g
tissue uptake at 3 h [1, 6]: 21.4 %ID/g
tissue uptake at 6 h [1, 5]: 48.9 %ID/g
tissue uptake at 6 h [1, 6]: 65.9 %ID/g
tissue uptake at 0.5 h ([1]; mouse, fat, 0.5 hours, blocked (lisinopril), read-out: Biodistribution, Fat): 0.6 %ID/g
tissue uptake at 0.5 h ([1]; mouse, fat, 0.5 hours, normal (not blocked), read-out: Biodistribution, Fat): 0.7 %ID/g
tissue uptake at 1.5 h [1, 7]: 0.5 %ID/g
tissue uptake at 1.5 h [1, 8]: 0.8 %ID/g
tissue uptake at 3 h [1, 7]: 0.2 %ID/g
tissue uptake at 3 h [1, 8]: 0.4 %ID/g
tissue uptake at 6 h [1, 7]: 0.1 %ID/g
tissue uptake at 6 h [1, 8]: 0.2 %ID/g
clearance from small intestine ([1]; mouse, in vivo): quite slow clearance
clearance from the lungs ([1]; mouse, in vivo): rapid clearance from the lungs
uptake in the small intestine ([1]; mouse, in vivo): High uptake in the small intestine
tissue uptake at 0.5 h ([1]; mouse, kidney, 0.5 hours, blocked (lisinopril), read-out: Biodistribution, Kidney): 9.8 %ID/g
tissue uptake at 0.5 h ([1]; mouse, kidney, 0.5 hours, normal (not blocked), read-out: Biodistribution, Kidney): 7.1 %ID/g
tissue uptake at 1.5 h [1, 9]: 2.4 %ID/g
tissue uptake at 1.5 h [1, 10]: 7.1 %ID/g
tissue uptake at 3 h [1, 9]: 1.4 %ID/g
tissue uptake at 3 h [1, 10]: 6.9 %ID/g
tissue uptake at 6 h [1, 9]: 0.5 %ID/g
tissue uptake at 6 h [1, 10]: 9.6 %ID/g
tissue uptake at 0.5 h ([1]; mouse, large intestine, 0.5 hours, blocked (lisinopril), read-out: Biodistribution, lg. Intest.): 1.1 %ID/g
tissue uptake at 0.5 h ([1]; mouse, large intestine, 0.5 hours, normal (not blocked), read-out: Biodistribution, lg. Intest.): 1.5 %ID/g
tissue uptake at 1.5 h [1, 11]: 1.4 %ID/g
tissue uptake at 1.5 h [1, 12]: 1.1 %ID/g
tissue uptake at 3 h [1, 11]: 13.4 %ID/g
tissue uptake at 3 h [1, 12]: 2.6 %ID/g
tissue uptake at 6 h [1, 11]: 14.6 %ID/g
tissue uptake at 6 h [1, 12]: 18.6 %ID/g
tissue uptake at 0.5 h ([1]; mouse, liver, 0.5 hours, blocked (lisinopril), read-out: Biodistribution, Liver): 7.6 %ID/g
tissue uptake at 0.5 h ([1]; mouse, liver, 0.5 hours, normal (not blocked), read-out: Biodistribution, Liver): 7.2 %ID/g
tissue uptake at 1.5 h [1, 13]: 1.4 %ID/g
tissue uptake at 1.5 h [1, 14]: 4.9 %ID/g
tissue uptake at 3 h [1, 13]: 1.9 %ID/g
tissue uptake at 3 h [1, 14]: 3.8 %ID/g
tissue uptake at 6 h [1, 13]: 0.3 %ID/g
tissue uptake at 6 h [1, 14]: 0.8 %ID/g
tissue uptake at 0.5 h ([1]; mouse, lung, 0.5 hours, blocked (lisinopril), read-out: Biodistribution, Lung): 1 %ID/g
tissue uptake at 0.5 h ([1]; mouse, lung, 0.5 hours, normal (not blocked), read-out: Biodistribution, Lung): 4.8 %ID/g
tissue uptake at 1.5 h [1, 15]: 0.6 %ID/g
tissue uptake at 1.5 h [1, 16]: 1.8 %ID/g
tissue uptake at 3 h [1, 15]: 0.5 %ID/g
tissue uptake at 3 h [1, 16]: 1.7 %ID/g
tissue uptake at 6 h [1, 15]: 0.3 %ID/g
tissue uptake at 6 h [1, 16]: 0.5 %ID/g
tissue uptake at 0.5 h ([1]; mouse, muscle, 0.5 hours, blocked (lisinopril), read-out: Biodistribution, Muscle): 1.1 %ID/g
tissue uptake at 0.5 h ([1]; mouse, muscle, 0.5 hours, normal (not blocked), read-out: Biodistribution, Muscle): 1.1 %ID/g
tissue uptake at 1.5 h [1, 17]: 0.4 %ID/g
tissue uptake at 1.5 h [1, 18]: 0.8 %ID/g
tissue uptake at 3 h [1, 17]: 0.3 %ID/g
tissue uptake at 3 h [1, 18]: 0.6 %ID/g
tissue uptake at 6 h [1, 17]: 0.2 %ID/g
tissue uptake at 6 h [1, 18]: 0.3 %ID/g
tissue uptake at 0.5 h ([1]; mouse, small intestine, 0.5 hours, blocked (lisinopril), read-out: Biodistribution, Sm. Intest.): 19.8 %ID/g
tissue uptake at 0.5 h ([1]; mouse, small intestine, 0.5 hours, normal (not blocked), read-out: Biodistribution, Sm. Intest.): 31.9 %ID/g
tissue uptake at 1.5 h [1, 19]: 21.7 %ID/g
tissue uptake at 1.5 h [1, 20]: 27 %ID/g
tissue uptake at 3 h [1, 19]: 14.2 %ID/g
tissue uptake at 3 h [1, 20]: 27 %ID/g
tissue uptake at 6 h [1, 19]: 1.2 %ID/g
tissue uptake at 6 h [1, 20]: 20.1 %ID/g
tissue uptake at 0.5 h ([1]; mouse, stomach, 0.5 hours, blocked (lisinopril), read-out: Biodistribution, Stomach): 24.2 %ID/g
tissue uptake at 0.5 h ([1]; mouse, stomach, 0.5 hours, normal (not blocked), read-out: Biodistribution, Stomach): 25.1 %ID/g
tissue uptake at 1.5 h [1, 21]: 13.3 %ID/g
tissue uptake at 1.5 h [1, 22]: 28.7 %ID/g
tissue uptake at 3 h [1, 21]: 12.8 %ID/g
tissue uptake at 3 h [1, 22]: 14.2 %ID/g
tissue uptake at 6 h [1, 21]: 4.2 %ID/g
tissue uptake at 6 h [1, 22]: 5.1 %ID/g
blocking of uptake in kidney and small intestine ([1]; pre-injection with lisinopril): effectively blocked at all time points
Structure (SMILES): O=C(NCCCC[C@H](N[C@@H](CCc1ccccc1)C(=O)O)C(=O)N1CCC[C@H]1C(=O)O)c1cccc([131I])c1 [^131 I-3, Lisinopril N^ε -radioiodobezamide]
uptake in kidneys and lungs ([1]; early time points): uptake in the kidneys and lungs at early time points
uptake in all other organs, blocked vs normal ([1]; pre-injection with lisinopril): no difference in uptake between the normal and blocked biodistributions
organs imaged [2]: clearly show the lungs and kidneys at early time points, as well as in the bladder at later time points
